From patent US8569344B2, “N-piperidinyl acetamide derivatives as calcium channel blockers” (Zalicus Pharmaceuticals Ltd., priority 2008, dated 2013)
Where two headings read alike, the source gives them in different places.

Assays:
Assay type in all cases: cell-based
hERG K+ channel = hERG K+ channel (Homo sapiens, UniProt Q12809); assay: hERG K+ Channel Block
[1] = target: T1, human α1H T-type channels (Homo sapiens, UniProt O95180); assay: T-type calcium channel block, whole cell patch clamp in HEK cells (α1H); details: HEK cells, patch clamp, mainly non-inactivated protocol; values above 10 μM shown as 10 μM; read-out: T-type Calcium Channel Block α1H IC50
T1 construct: expressed in transfected cells; host or cells: HEK 293

[2] = target: T2, human α1G T-type channels (Homo sapiens, UniProt O43497); assay: T-type calcium channel block, whole cell patch clamp in HEK cells (α1G); details: HEK cells, patch clamp, mainly non-inactivated protocol; values above 10 μM shown as 10 μM, below 0.30 μM shown as 0.30 μM; read-out: T-type Calcium Channel Block α1G IC50
T2 construct: expressed in transfected cells; host or cells: HEK 293
T2 sequence (O43497 whole entry): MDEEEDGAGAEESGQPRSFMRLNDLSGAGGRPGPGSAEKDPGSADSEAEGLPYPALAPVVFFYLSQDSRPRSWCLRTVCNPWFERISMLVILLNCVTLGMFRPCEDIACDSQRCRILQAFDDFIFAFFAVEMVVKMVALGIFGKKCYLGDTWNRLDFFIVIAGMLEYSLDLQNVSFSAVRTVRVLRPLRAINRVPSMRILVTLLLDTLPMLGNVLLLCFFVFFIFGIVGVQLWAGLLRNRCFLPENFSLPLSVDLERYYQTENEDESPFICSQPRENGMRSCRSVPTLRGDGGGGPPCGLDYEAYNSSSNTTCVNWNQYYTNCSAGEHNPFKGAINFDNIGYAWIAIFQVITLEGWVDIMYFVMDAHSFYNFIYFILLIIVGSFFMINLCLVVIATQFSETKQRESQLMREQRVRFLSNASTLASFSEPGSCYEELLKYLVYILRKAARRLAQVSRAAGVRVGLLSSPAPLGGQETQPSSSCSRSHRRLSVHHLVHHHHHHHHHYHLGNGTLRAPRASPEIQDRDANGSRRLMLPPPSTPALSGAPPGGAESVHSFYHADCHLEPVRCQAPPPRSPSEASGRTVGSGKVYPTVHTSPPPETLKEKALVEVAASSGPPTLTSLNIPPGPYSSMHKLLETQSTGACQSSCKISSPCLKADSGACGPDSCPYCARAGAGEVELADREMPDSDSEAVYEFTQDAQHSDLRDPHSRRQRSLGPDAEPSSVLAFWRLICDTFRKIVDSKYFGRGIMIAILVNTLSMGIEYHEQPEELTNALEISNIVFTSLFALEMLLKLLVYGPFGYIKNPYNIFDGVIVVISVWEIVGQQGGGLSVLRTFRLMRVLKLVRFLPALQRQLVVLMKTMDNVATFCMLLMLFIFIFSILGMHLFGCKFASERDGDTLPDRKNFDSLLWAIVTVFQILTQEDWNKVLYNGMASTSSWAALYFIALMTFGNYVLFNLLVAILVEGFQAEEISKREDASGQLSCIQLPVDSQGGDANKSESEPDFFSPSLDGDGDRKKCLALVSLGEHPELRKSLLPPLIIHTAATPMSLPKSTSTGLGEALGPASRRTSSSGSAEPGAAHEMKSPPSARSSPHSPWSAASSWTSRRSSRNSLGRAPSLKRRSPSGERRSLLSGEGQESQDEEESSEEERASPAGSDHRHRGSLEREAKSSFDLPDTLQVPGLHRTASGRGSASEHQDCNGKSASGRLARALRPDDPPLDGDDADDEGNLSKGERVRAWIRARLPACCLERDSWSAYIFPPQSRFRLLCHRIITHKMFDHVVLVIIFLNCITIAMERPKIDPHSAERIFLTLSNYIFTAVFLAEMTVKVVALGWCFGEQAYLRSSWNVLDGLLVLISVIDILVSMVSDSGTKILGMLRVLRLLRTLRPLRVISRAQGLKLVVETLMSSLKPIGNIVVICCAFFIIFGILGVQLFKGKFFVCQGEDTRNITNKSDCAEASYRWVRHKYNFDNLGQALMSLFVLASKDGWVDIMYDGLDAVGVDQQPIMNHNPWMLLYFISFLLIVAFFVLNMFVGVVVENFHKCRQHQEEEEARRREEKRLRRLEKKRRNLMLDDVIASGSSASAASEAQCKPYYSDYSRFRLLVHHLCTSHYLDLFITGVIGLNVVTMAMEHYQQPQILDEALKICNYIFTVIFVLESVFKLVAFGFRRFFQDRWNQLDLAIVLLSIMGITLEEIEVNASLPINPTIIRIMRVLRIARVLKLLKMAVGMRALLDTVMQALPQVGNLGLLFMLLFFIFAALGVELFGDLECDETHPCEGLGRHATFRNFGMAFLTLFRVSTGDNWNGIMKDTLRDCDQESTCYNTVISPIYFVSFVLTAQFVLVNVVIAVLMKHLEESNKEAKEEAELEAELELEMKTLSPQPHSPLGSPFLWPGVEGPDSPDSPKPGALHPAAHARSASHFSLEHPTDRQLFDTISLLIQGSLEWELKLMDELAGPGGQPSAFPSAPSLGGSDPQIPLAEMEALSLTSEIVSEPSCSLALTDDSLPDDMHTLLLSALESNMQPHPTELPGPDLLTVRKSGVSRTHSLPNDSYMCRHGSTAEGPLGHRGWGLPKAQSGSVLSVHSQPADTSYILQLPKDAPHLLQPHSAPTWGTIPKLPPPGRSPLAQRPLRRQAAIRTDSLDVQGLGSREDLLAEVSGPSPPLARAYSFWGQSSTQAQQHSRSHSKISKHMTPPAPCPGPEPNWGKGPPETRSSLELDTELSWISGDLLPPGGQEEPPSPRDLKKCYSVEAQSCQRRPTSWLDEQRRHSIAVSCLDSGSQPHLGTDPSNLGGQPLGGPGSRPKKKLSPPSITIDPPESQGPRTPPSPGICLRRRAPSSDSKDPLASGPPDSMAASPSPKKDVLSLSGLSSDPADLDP

T1 sequence (O95180 whole entry): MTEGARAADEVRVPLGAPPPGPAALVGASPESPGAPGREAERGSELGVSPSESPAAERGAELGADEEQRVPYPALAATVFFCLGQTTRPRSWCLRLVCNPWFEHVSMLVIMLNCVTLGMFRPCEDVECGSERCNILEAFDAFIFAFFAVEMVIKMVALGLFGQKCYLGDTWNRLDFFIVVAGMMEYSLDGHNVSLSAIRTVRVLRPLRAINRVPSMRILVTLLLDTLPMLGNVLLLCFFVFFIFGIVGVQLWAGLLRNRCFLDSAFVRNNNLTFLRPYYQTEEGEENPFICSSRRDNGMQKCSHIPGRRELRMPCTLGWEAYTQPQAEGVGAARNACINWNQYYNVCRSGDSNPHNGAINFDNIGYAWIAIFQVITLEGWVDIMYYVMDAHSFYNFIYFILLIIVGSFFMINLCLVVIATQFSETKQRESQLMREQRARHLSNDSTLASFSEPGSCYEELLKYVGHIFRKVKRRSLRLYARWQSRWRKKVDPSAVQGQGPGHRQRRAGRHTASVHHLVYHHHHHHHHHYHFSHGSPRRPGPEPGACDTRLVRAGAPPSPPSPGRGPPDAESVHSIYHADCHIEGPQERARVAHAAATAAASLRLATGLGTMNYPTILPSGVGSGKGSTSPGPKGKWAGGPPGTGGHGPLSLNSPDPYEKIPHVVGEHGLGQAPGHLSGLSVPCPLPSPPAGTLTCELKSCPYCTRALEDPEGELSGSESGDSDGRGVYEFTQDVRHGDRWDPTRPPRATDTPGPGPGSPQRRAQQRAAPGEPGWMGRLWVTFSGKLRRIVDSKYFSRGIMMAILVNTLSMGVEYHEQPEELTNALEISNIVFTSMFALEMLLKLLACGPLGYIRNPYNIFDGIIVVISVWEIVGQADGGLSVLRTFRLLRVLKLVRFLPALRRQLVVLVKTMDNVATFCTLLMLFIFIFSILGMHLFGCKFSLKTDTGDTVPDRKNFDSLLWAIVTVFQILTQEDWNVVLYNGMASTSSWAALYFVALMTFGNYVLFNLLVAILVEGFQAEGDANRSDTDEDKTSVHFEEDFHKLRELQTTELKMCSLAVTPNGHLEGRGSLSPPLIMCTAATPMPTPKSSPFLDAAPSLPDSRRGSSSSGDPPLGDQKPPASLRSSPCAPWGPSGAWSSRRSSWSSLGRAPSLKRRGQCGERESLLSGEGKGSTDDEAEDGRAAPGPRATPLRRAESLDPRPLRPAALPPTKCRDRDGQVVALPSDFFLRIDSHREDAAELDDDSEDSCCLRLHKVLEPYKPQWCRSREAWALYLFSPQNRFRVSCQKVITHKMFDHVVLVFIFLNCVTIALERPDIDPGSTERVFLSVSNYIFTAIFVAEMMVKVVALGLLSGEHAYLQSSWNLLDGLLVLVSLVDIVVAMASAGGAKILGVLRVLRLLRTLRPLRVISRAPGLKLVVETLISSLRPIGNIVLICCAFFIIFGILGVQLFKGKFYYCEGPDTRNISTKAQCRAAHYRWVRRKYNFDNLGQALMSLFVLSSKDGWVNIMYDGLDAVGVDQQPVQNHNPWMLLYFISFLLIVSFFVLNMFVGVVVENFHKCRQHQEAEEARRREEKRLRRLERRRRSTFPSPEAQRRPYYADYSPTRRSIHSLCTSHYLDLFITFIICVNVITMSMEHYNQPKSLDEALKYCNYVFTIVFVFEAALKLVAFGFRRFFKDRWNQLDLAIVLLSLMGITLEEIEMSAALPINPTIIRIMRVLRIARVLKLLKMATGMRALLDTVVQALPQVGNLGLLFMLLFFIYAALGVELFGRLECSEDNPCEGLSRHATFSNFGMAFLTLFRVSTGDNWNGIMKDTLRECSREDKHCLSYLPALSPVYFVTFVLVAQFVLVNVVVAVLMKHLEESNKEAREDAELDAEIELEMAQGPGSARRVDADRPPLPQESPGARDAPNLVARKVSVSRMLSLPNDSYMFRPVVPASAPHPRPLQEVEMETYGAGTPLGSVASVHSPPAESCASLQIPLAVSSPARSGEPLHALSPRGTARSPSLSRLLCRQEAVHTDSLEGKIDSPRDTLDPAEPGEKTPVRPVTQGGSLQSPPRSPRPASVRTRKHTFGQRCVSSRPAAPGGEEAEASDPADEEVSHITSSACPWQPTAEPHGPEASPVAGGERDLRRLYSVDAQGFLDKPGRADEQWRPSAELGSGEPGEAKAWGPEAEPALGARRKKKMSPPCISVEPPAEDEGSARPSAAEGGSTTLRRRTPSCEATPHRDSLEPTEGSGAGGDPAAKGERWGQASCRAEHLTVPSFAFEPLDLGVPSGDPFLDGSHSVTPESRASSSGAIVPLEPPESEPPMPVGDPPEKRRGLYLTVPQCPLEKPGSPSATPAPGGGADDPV

Row | IC50 [1] | IC50 [2] | SMILES | IC50 (hERG K+ channel; human) | IC50 (hERG K+ channel)
1 | 200 nM | < 300 nM | CC(C)(C)S(=O)(=O)NCCN1CCC(CNC(=O)c2cccc(OC(F)(F)F)c2)CC1 [Compound 574, N-((1-(2-(1,1-dimetylethylsulfonamido)ethyl)piperidin-4-yl)methyl)-3-(trifluoromethoxy)benzamide] |  | 4100 nM
2 | 450 nM | < 300 nM | COc1cc(F)cc(C(=O)NCC2CCN(CCNS(=O)(=O)C(C)(C)C)CC2)c1 [Compound 577, N-((1-(2-(1,1-dimethylethylsulfonamido)ethyl)piperidin-4-yl)methyl)-3-fluoro-5-methoxybenzamide] | ≥ 17000 nM | 
3 | 160 nM | < 300 nM | CC1(C)COCCN1C(=O)CN1CCC(CNC(=O)c2cc(C(F)(F)F)cc(C(F)(F)F)c2)CC1 [Compound 578, N-((1-(2-(3,3-dimethylmorpholino)-2-oxoethyl)piperidin-4-yl)methyl)-3,5-bis(trifluoromethyl)benzamide] |  | 5400 nM
4 | 220 nM | < 300 nM | CN(C(=O)CN1CCC(CNC(=O)c2cccc(Cl)c2)CC1)C(C)(C)C(F)(F)F [Compound 580, 3-chloro-N-((1-(2-(methyl(1,1,1-trifluoro-2-methylpropan-2-yl)amino)-2-oxoethyl)piperidin-4-yl)methyl)benzamide] | ≥ 8300 nM | 
5 | 210 nM | < 300 nM | COc1cc(F)cc(C(=O)NCC2CCN(CC(=O)N(C)C(C)(C)C(F)(F)F)CC2)c1 [Compound 581, 3-fluoro-5-methoxy-N-((1-(2-(methyl(1,1,1-trifluoro-2-methyl-propan-2-yl)amino)-2-oxoethyl)piperidin-4-yl)methyl)benzamide] |  | 11000 nM
6 | 150 nM | < 300 nM | CN(C(=O)CN1CCC(CNC(=O)c2cc(F)cc(Cl)c2)CC1)C1(C)CCC1 [Compound 583, 3-chloro-5-fluoro-N-((1-(2-(methyl(1-methylcyclobutyl)amino)-2-oxoethyl)piperidin-4-yl)methyl)benzamide] |  | 1700 nM
7 | 70 nM | < 300 nM | COc1cc(Cl)cc(C(=O)NCC2CCN(CCNC(=O)C3(C(F)(F)F)CC3)CC2)c1 [Compound 590, 3-chloro-5-methoxy-N-((1-(2-(1-(trifluoromethyl)cyclopropanecarbox-amido)ethyl)piperidin-4-yl)methyl) benzamide] |  | 2200 nM

The next lines start with the molecule.

Row | SMILES | IC50 [1] | IC50 [2] | IC50 (hERG K+ channel; human) | IC50 (hERG K+ channel)
8 | CC(C)(C)[S+]([O-])NCCN1CCC(CNC(=O)c2cc(F)cc(C(F)(F)F)c2)CC1 (stereo not drawn) [Compound 537, N-((1-(2-(1,1-dimethylethylsulfinamido)ethyl)piperidin-4-yl)methyl)-3-fluoro-5-(trifluoromethyl)benzamide] | 360 nM | 2470 nM | ≥ 17000 nM | 
9 | COCC(C)(C)NC(=O)CN1CCC(CNC(=O)c2cc(F)cc(Cl)c2)CC1 [Compound 538, 3-chloro-5-fluoro-N-((1-(2-(1-methoxy-2-methylpropan-2-ylamino)-2-oxoethyl)piperidin-4-yl)methyl)benzamide] | 60 nM | < 300 nM |  | 13000 nM
10 | COc1cc(F)cc(C(=O)NCC2CCN(CC(=O)N(C)C(C)(C)C)CC2)c1 [Compound 541, N-((1-(2-(tert-butyl(methyl)amino)-2-oxoethyl)piperidin-4-yl)methyl)-3-fluoro-5-methoxybenzamide] | 410 nM | 310 nM | ≥ 17000 nM | 
11 | CN(C(=O)CN1CCC(CNC(=O)c2cccc(C(F)(F)F)c2)CC1)C(C)(C)C [Compound 542, N-((1-(2-(tert-butyl(methyl)amino)-2-oxoethyl)piperidin-4-yl)methyl)-3-(trifluoromethyl)benzamide] | 450 nM | 980 nM |  | 6400 nM
12 | CN(C(=O)CN1CCC(CNC(=O)c2cccc(Cl)c2)CC1)C(C)(C)C [Compound 543, N-((1-(2-(tert-butyl(methyl)amino)-2-oxoethyl)piperidin-4-yl)methyl)-3-chlorobenzamide] | 410 nM | 580 nM |  | 5200 nM
13 | CN(C(=O)CN1CCC(CNC(=O)c2cc(F)cc(Cl)c2)CC1)C(C)(C)C [Compound 544, N-((1-(2-(tert-butyl(methyl)amino)-2-oxoethyl)piperidin-4-yl)methyl)-3-chloro-5-fluorobenzamide] | 170 nM | < 300 nM |  | 6000 nM
14 | CN(C(=O)CN1CCC(CNC(=O)c2cccc(OC(F)(F)F)c2)CC1)C(C)(C)C [Compound 545, N-((1-(2-(tert-butyl(methyl)amino)-2-oxoethyl)piperidin-4-yl)methyl)-3-(trifluoromethoxy)benzamide] | 210 nM | 470 nM |  | 6600 nM
15 | CN(C(=O)CN1CCC(CNC(=O)c2cc(Cl)cc(Cl)c2)CC1)C(C)(C)C [Compound 552, N-((1-(2-(tert-butyl(methyl)amino)-2-oxoethyl)piperidin-4-yl)methyl)-3,5-dichlorobenzamide] | 60 nM | < 300 nM |  | 1800 nM
16 | COCC(C)(C)NC(=O)CN1CCC(CNC(=O)c2cc(F)cc(OC)c2)CC1 [Compound 567, 3-fluoro-5-methoxy-N-((1-(2-(1-methoxy-2-methylpropan-2-ylamino)-2-oxoethyl)piperidin-4-yl)methyl)benzamide] | 350 nM | < 300 nM | ≥ 17000 nM | 
